This note sets out measurements from patent publication US11912699B2, “Tau-protein targeting compounds and associated” (Arvinas Operations, Inc., priority 2019, dated 2024).

Where a name gives a salt, the structure may show the parent alone.

In this assay the target is T1, Tau P301L (Homo sapiens, UniProt P10636, P618L).
T1 construct: expressed in transfected cells
In words: In vitro tau degradation assay in CHOK1 Tau P301L cells (sarkosyl insoluble tau, WES). The class given is cell-based. The conditions noted are these: remaining tau protein in sarkosyl insoluble pellet, CHOK1 Tau P301L cells treated 48 hours with test compound at 1 μM, doxycycline removed for the last 24 hours, relative to DMSO doxycycline control; for remaining activity at 1 µM: CHO-K1, read-out: Tau Protein Degradation effect at 1 μM. How it is done: Exemplary bifunctional molecules of the present disclosure are represented by the structures in Table 1, which includes associated data. In vitro tau protein degradation data in CHOK1 Tau P301L cells, as described below, is reported based on the remaining tau protein in the sarkosyl insoluble pellet following treatment of cells for 48 hours with test compound at the 1 μM concentration where the last 24 hours doxycycline was removed. The data are represented relative to DMSO doxycycline control: • A ≤50% of tau protein remaining (>50% of tau protein degraded) • B >50% of tau protein remaining ([…] of tau protein degraded)
Data for compounds in Table 1 was generated using in vitro tau Degradation Assay protocol as described in Methods for FIGS. 2A and 2B below.
FIGS. 2A and 2B. (2A) Tau expression was induced by addition (+) of doxycycline (1 μg/ml) to ChoK1-Tau P301L clone D1.
In vitro tau Degradation Assay for FIGS. 2A and 2B. T-Rex CHOK1 cells are maintained in Ham's F-12 Nutrient Mix (ThermoFisher) plus 10% Fetal Bovine Serum Tetracycline Negative (Corning) with 10 ug/mL Blasticidin S HCl (Gibco) and 200 ug/mL Zeocin (100 mg/mL, Invitrogen). A stable clone expressing Tau P301L in the presence of doxycycline (1 μg/ml), clone D1 was selected. Compounds were diluted to indicated concentrations and used to treat cells for the indicated times. Cells were harvested from either 96, 24, 6, or 10 cm dishes coated with Poly-D-Lysine (Corning) in ice cold PBS or Buffer H+HALT Protease and phosphatase inhibitors (Thermofisher). Sarkosyl Insoluble tau was isolated as described in Eckermann et al. and Greenberg and Davies, accordingly. WES™ capillary electrophoresis analysis was performed on the Sarkosyl Insoluble tau fraction using Tau1 antibody (Milipore) unless otherwise indicated, as specified in the manufacturers specification (ProteinSimple).

T1 sequence (P10636 1-441 isoform P10636-8 P301L): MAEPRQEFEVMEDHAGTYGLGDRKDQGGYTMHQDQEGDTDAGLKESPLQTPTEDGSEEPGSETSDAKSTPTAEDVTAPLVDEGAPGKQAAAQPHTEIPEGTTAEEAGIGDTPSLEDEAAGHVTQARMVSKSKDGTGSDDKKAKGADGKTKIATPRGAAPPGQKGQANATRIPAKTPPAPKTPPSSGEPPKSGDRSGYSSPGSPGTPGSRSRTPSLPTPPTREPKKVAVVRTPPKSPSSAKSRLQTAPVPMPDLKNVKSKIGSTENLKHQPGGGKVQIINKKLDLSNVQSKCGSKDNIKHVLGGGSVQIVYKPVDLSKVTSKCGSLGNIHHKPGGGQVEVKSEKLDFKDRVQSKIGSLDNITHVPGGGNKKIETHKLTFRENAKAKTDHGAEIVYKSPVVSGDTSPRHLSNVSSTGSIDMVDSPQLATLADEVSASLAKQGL

For the compound `Cc1ncsc1-c1ccc([C@H](C)NC(=O)[C@@H]2C[C@@H](O)CN2C(=O)[C@@H](c2cc(N3CCN(CCO[C@H]4C[C@H](Oc5ccc(-c6ccc7c8cnccc8n(C)c7c6)cn5)C4)CC3)no2)C(C)C)cc1` [Compound 391, (2S,4R)-4-hydroxy-1-((R)-3-methyl-2-(3-(4-(2-((1r,3R)-3-((5-(5-methyl-5H-pyrido[4,3-b]indol-7-yl)pyridin-2-yl)oxy)cyclobutoxy)ethyl)piperazin-1-yl)isoxazol-5-yl)butanoyl)-N-((S)-1-(4-(4-methylthiazol-5-yl)phenyl)ethyl) pyrrolidine-2-carboxamide], the remaining activity at 1 µM was < 50%.

With `Cn1c2ccncc2c2ccc(-c3ccc(O[C@H]4C[C@H](N(C)C5CC6(C5)CN(CCOc5ccc7c(c5)C(=O)N(C5CCC(=O)NC5=O)C7=O)C6)C4)nc3)cc21` (stereo partly drawn) [Compound 392, 2-(2,6-dioxopiperidin-3-yl)-5-(2-(6-(methyl((1r,3r)-3-((5-(5-methyl-5H-pyrido[4,3-b]indol-7-yl)pyridin-2-yl)oxy)cyclobutyl)amino)-2-azaspiro[3.3]heptan-2-yl)ethoxy) isindoline-1,3-dione], the remaining activity at 1 µM was > 50%.

As for `Cn1c2ccncc2c2ccc(-c3ccc(O[C@H]4C[C@H](CN5CCC(CCCCCOc6ccc7c(c6)C(=O)N(C6CCC(=O)NC6=O)C7=O)CC5)C4)nc3)cc21` (stereo partly drawn) [Compound 393, 2-(2,6-dioxopiperidin-3-yl)-5-((5-(1-(((1r,3r)-3-((5-(5-methyl-5H-pyrido[4,3-b]indol-7-yl)pyridin-2-yl)oxy)cyclobutyl)methyl)piperidin-4-yl)pentyl)oxy) isoindoline-1,3-dione], the remaining activity at 1 µM is < 50%.

Regarding `Cn1c2ccncc2c2ccc(-c3ccc(O[C@H]4C[C@H](CN5CCC(CCCN6CC(Oc7ccc8c(c7)C(=O)N(C7CCC(=O)NC7=O)C8=O)C6)CC5)C4)nc3)cc21` (stereo partly drawn) [Compound 394, 2-(2,6-dioxopiperidin-3-yl)-5-((1-(3-(1-(((1r,3r)-3-((5-(5-methyl-5H-pyrido[4,3-b]indol-7-yl)pyridin-2-yl)oxy)cyclobutyl)methyl)piperidin-4-yl)propyl)azetidin-3-yl)oxy)isoindoline-1,3-dione], the remaining activity at 1 µM is > 50%.

On to `Cc1ncsc1-c1ccc([C@H](C)NC(=O)[C@@H]2C[C@@H](O)CN2C(=O)[C@@H](c2cc(OCCOCCOCCOc3ccc(-c4ccc5c(c4)[nH]c4ccncc45)cn3)no2)C(C)C)cc1` [Compound 396], for which the “Tau Protein Degradation effect at 1 μM” value is listed as “A (≤50% of tau protein remaining (>50% of tau protein degraded))”.

`Cn1c2ccncc2c2ccc(-c3ccc(N4CCC(CCN5CCN(c6ccc7c(c6)C(=O)N(C6CCC(=O)NC6=O)C7=O)CC5)CC4)nc3)cc21` (stereo not drawn) [Compound 397, 2-(2,6-dioxopiperidin-3-yl)-5-(4-(2-(1-(5-(5-methyl-5H-pyrido[4,3-b]indol-7-yl)pyridin-2-yl)piperidin-4-yl)ethyl)piperazin-1-yl)isindoline-1,3-dione]: the remaining activity at 1 µM is < 50%.

Consider `Cc1ncsc1-c1ccc([C@H](C)NC(=O)[C@@H]2C[C@@H](O)CN2C(=O)[C@@H](c2cc(OCCN3CCC(O[C@H]4C[C@H](Oc5ccc(-c6ccc7c8cnccc8n(C)c7c6)cn5)C4)CC3)no2)C(C)C)cc1` [Compound 398, (2S,4R)-4-hydroxy-1-((R)-3-methyl-2-(3-(2-(4-((1r,3R)-3-((5-(5-methyl-5H-pyrido[4,3-b]indol-7-yl)pyridin-2-yl)oxy)cyclobutoxy)piperidin-1-yl)ethoxy)isoxazol-5-yl)butanoyl)-N-((S)-1-(4-(4-methylthiazol-5-yl)phenyl)ethyl) pyrrolidine-2-carboxamide], for which the remaining activity at 1 µM is < 50%.

In the case of `Cc1ncsc1-c1ccc([C@H](C)NC(=O)[C@@H]2C[C@@H](O)CN2C(=O)[C@H](c2cc(OCCN3CCC(O[C@H]4C[C@H](Oc5ccc(-c6ccc7c8cnccc8n(C)c7c6)cn5)C4)CC3)no2)C(C)C)cc1` [Compound 399, (2S,4R)-4-hydroxy-1-((S)-3-methyl-2-(3-(2-(4-((1r,3S)-3-((5-(5-methyl-5H-pyrido[4,3-b]indol-7-yl)pyridin-2-yl)oxy)cyclobutoxy)piperidin-1-yl)ethoxy)isoxazol-5-yl)butanoyl)-N-((S)-1-(4-(4-methylthiazol-5-yl)phenyl)ethyl) pyrrolidine-2-carboxamide], the remaining activity at 1 µM was > 50%.

On to `O=C1CCC(N2C(=O)c3ccc(N4CCN(CCC5CCN(c6ccc(-c7ccc8c(c7)[nH]c7ccncc78)cn6)CC5)CC4)cc3C2=O)C(=O)N1` (stereo not drawn) [Compound 400, 2-(2,6-dioxopiperidin-3-yl)-5-(4-[2-[1-(5-[5H-pyrido[4,3-b]indol-7-yl]pyridin-2-yl)piperidin-4-yl]ethyl]piperazin-1-yl)isoindole-1,3-dione], for which the remaining activity at 1 µM was < 50%.

As for `Cn1c2ccncc2c2ccc(-c3ccc(O[C@H]4C[C@H](N(C)C5CC6(C5)CN(CCC5CCN(c7ccc8c(c7)C(=O)N(C7CCC(=O)NC7=O)C8=O)CC5)C6)C4)nc3)cc21` (stereo partly drawn) [Compound 401, 2-(2,6-dioxopiperidin-3-yl)-5-(4-(2-(6-(methyl((1r,3r)-3-((5-(5-methyl-5H-pyrido[4,3-b]indol-7-yl)pyridin-2-yl)oxy)cyclobutyl)amino)-2-azaspiro[3.3]heptan-2-yl)ethyl)piperidin-1-yl) isoindoline-1,3-dione], the remaining activity at 1 µM is < 50%.

Regarding `Cn1c2ccncc2c2ccc(-c3ccc(N4CC(OC5CCN(CCOc6ccc7c(c6)C(=O)N(C6CCC(=O)NC6=O)C7=O)CC5)C4)nc3)cc21` (stereo not drawn) [Compound 416, 2-(2,6-dioxopiperidin-3-yl)-5-[2-(4-[[1-(5-[5-methylpyrido[4,3-b]indol-7-yl]pyridin-2-yl)azetidin-3-yl]oxy]piperidin-1-yl)ethoxy]isoindole-1,3-dione], the remaining activity at 1 µM is < 50%.

Consider `Cn1c2ccncc2c2ccc(-c3ccc(OCCOCCOCCOc4ccc5c(c4)C(=O)N(C4CCC(=O)NC4=O)C5=O)nc3)nc21` (stereo not drawn) [Compound 419, 2-(2,6-dioxopiperidin-3-yl)-5-(2-(2-(2-((5-(9-methyl-9H-pyrrolo[2,3-b:4,5-c′]dipyridin-2-yl)pyridin-2-yl)oxy)ethoxy)ethoxy)ethoxy)isoindoline-1,3-dione], for which the remaining activity at 1 µM is > 50%.

In the case of `Cn1c2ccncc2c2ccc(-c3ccc(OC4CN(C5CCN(CCCCCOc6ccc7c(c6)C(=O)N(C6CCC(=O)NC6=O)C7=O)CC5)C4)nc3)cc21` (stereo not drawn) [Compound 424, 2-(2,6-dioxopiperidin-3-yl)-5-((5-(4-(3-((5-(5-methyl-5H-pyrido[4,3-b]indol-7-yl)pyridin-2-yl)oxy)azetidin-1-yl)piperidin-1-yl)pentyl)oxy) isoindoline-1,3-dione], the remaining activity at 1 µM is > 50%.

Turning to `O=C1CCC(N2C(=O)c3ccc(OCCOCCOCCN4CCC(c5ccc6c(c5)[nH]c5ccncc56)CC4)cc3C2=O)C(=O)N1` (stereo not drawn) [Compound 431], the remaining activity at 1 µM was > 50%.

As for `CC(C)N(CCCCOc1ccc2c(c1)C(=O)N(C1CCC(=O)NC1=O)C2=O)[C@H]1CC[C@H](O[C@H]2C[C@H](Oc3ccc(-c4ccc5c6cnccc6n(C)c5c4)cn3)C2)CC1` (stereo partly drawn) [Compound 436, 2-(2,6-dioxopiperidin-3-yl)-5-(4-(isopropyl((1R,4r)-4-((1r,3R)-3-((5-(5-methyl-5H-pyrido[4,3-b]indol-7-yl)pyridin-2-yl)oxy)cyclobutoxy)cyclohexyl)amino)butoxy)isoindoline-1,3-dione], the remaining activity at 1 µM is < 50%.

With `CN(C)c1ccn2cc(-c3ccc(OCCOCCOCCOc4ccc5c(c4)C(=O)N(C4CCC(=O)NC4=O)C5=O)cc3)nc2c1` (stereo not drawn) [Compound 440, 5-(2-(2-(2-(4-(7-(dimethylamino)imidazo [1,2-a]pyridin-2-yl)phenoxy)ethoxy)ethoxy)ethoxy)-2-(2,6-dioxopiperidin-3-yl)isoindoline-1,3-dione], the remaining activity at 1 µM was > 50%.

As for `O=C1CCC(N2C(=O)c3ccc(OCCCCCN4CCC(OC5CN(c6ncc(-c7ccc8c9cnccc9n(C(F)F)c8c7)cc6C(F)(F)F)C5)CC4)cc3C2=O)C(=O)N1` (stereo not drawn) [Compound 442, 5-[5-[14-[1-[5-[5-(Difluoromethyl)pyrido[4,3-b]indol-7-yl]-3-(trifluoromethyl)-2-pyridyl]azetidin-3-yl]oxy-1-piperidyl]pentoxy]-2-(2,6-dioxo-3-piperidyl)isoindoline-1,3-dione formate], the remaining activity at 1 µM was < 50%.

Turning to `Cn1c2ccncc2c2ccc(-c3ccc(N4CC(C(=O)N5CCN(CCCCCOc6ccc7c(c6)C(=O)N(C6CCC(=O)NC6=O)C7=O)CC5)C4)nc3)cc21` (stereo not drawn) [Compound 446, 2-(2,6-dioxopiperidin-3-yl)-5-((5-(4-(1-(5-(5-methyl-5H-pyrido[4,3-b]indol-7-yl)pyridin-2-yl)azetidine-3-carbonyl)piperazin-1-yl)pentyl)oxy) isoindoline-1,3-dione], the remaining activity at 1 µM is > 50%.
